Columns and labels:
penicilium italicum = experiment: in vitro efficacy on PDA medium in microtitre plate wells (radial growth of colony); format: cell-based; conditions: for control of the growth of the fungus (in words): 60 ppm each, alone or combined; for Radial growth of fungus / Efficacy: 60 ppm, PDA medium, 22° C.; for Radial growth of fungus: control 20 mm; for Efficacy: versus untreated control
Description: This example illustrates the efficacy of the composition according to the invention for controlling penicilium italicum. The trial was carried out in vitro.
The fungicidal compositions were used in the form of the formulated product incorporated in PDA medium in superfusion at doses in an amount of 6 μl of fungicidal solutions together with 1000 μl of PDA per well of 20 mm in diameter of a microtitre plate (four repeats/product). One day later, a microdrop of an aqueous suspension of penicilium italicum supplemented with 400 ppm of Tween 20 was brought to the surface of each well of the microtitre plate. The cultures were then incubated at 22° C. at 60% relative humidity under subdued light until the control culture (without fungicide) had covered the entire surface of the well. The diameter of each colony was then measured and, in comparison with untreated control, a percentage efficacy was calculated using the formula
(§1) (Diameter of the Control−Diameter of the Trial/Diameter of the Control×100)

geotrichum candidum = experiment: in vivo efficacy on valencia citrus, wound inoculation then treatment six hours later, fruit affected by rot counted; conditions: 5° C., 28 days
Description: This trial was carried out in vivo.
The fungicidal compositions were used in solution at the doses detailed in Table 3. Citrus of the valencia variety, untreated after harvest, was treated by sprinkling a fungicidal solution up to the run-off limit at the doses described in Table 3 of results (10 citrus per product). First inoculation by pre-made wounds was made with a suspension of 150000 spores/ml of geotrichum candidum, obtained from a pre-culture on PDA medium. Then six hours later, the product tested was applied up to the run-off limit. The fruit were then stored in the dark at 5° C. and 100% relative humidity and the scores for the disease were measured 28 days later.
The number of fruit samples affected by rot was counted and, in comparison with the untreated control, a percentage efficacy was calculated and show in table 3 below: […]

penicillium expansum = experiment: in vivo efficacy on Golden apples, preventive sprinkling then inoculation, fruit affected by rot counted; conditions: for Efficacy: Golden apples, 20° C., scored from three weeks; for control of the growth of the fungus (in words): hexanal 1000 ppm, imidazalil 250 ppm, alone or combined, apples
Description: This example provides an illustration of the efficacy of the composition according to the invention for combating penicillium expansum on apples. The trial was carried out in vivo.
The fungicidal compositions were used in solution at the doses detailed in Table 2. Apples of the Golden variety, untreated after harvest, were treated by sprinkling a fungicidal solution up to the run-of limit at the doses described in Table 2 (10 apples per product). Six hours later, the fruit was inoculated by sprinkling an aqueous suspension at 150000 spores/ml of […]. obtained from a pre-culture on PDA medium. This inoculation by sprinkling was carried out up to the run-off limit. The fruit was then stored in the dark at 20° C. and 100% relative humidity and the scores for the disease were measured three weeks later, for a period of two weeks. The numbers of fruit samples affected by rot were counted and, in comparison with the untreated control, a percentage efficacy was calculated using the formula
as §1

Compound	control of the growth of the fungus (in words) (penicilium italicum)	Radial growth of fungus (penicilium italicum)	Efficacy (penicilium italicum)	Efficacy (geotrichum candidum; 500 ppm)	Efficacy (penicillium expansum; 250 ppm)	control of the growth of the fungus (in words) (penicillium expansum)	Efficacy (geotrichum candidum; 1500 ppm)	Efficacy (penicillium expansum; 1000 ppm)
CCCN(CCOc1c(Cl)cc(Cl)cc1Cl)C(=O)n1ccnc1 [procloraz, prochloraz]	poor results	18 mm	10%					
C=CCOC(Cn1ccnc1)c1ccc(Cl)cc1Cl (stereo not drawn) [Imazalil, imazalil]				0%	28%	did not control the growth of the fungus		
CCCCCC=O [hexanal]	poor results	19 mm	5%			did not control the growth of the fungus	20%	12%

— patent publication US20130345053A1, “Fungicidal Composition” (ICA LABORATORIES CC, priority 2011, published 2013)
